Tests used:
Format in all cases: in vivo, rat
[1] = system: male rats; experiment: Penile erection study in male rats after oral administration (responding rats, ED50, erection episodes, penile erection index); conditions: for responding rats, # / responding rats, %: 10 rats tested, 2 h observation; for copulation mounting behaviour: 0.0781-0.625 mg/kg
Experimental: The purpose of this study was to compare the biological activity of compound 7a with that of sildenafil. In particular, the respective ED50 -value (ED=effective dose), erection episodes and penile erection indices of said compounds in the treatment of male rats were determined. The penile erection index is an established means of determining the erection promoting properties of a substance (see e.g. Ang, H. H., Sim, M. K., Pharm. Sci., 3, 117-119 (1997) and references cited therein).
In these experiments, the compounds 7a and sildenafil were administered to male rats orally. The doses used for both drugs were 0.0781, 0.1562, 0.3125 and 0.625 mg/kg body weight. Sildenafil was dissolved in distilled water, whereas 7a was dissolved in 1% HCl solution (aq). Control animals were administered with the vehicles only, i.e. distilled water or the 1% HCl solution. During the experiments, the rats were placed in glass cages for observation and had access to food and water. During 2 h after administration of the investigated compounds, the penile erection of the rats was monitored.

[2] = Preliminary toxicity studies in rats; conditions: rat, in vivo, read-out: tolerated dose without any detrimental effects
Experimental: (§1) Moreover, according to preliminary toxicity studies in rats, the compound 7a is tolerated up to a dose of about […] body weight without any detrimental effects. […] Thus, high doses of 7a provide a particularly efficient means for treatment of erectile dysfunction.

[3] = system: rats; experiment: Preliminary toxicity studies in rats
Experimental: as §1

Structure (SMILES) | responding rats, # ([1]; dose 0.0781 mg/kg oral) | responding rats, % ([1]; dose 0.0781 mg/kg oral) | responding rats, # ([1]; dose 0.1562 mg/kg oral) | responding rats, % ([1]; dose 0.1562 mg/kg oral) | responding rats, # ([1]; dose 0.3125 mg/kg oral) | responding rats, % ([1]; dose 0.3125 mg/kg oral) | responding rats, # ([1]; dose 0.6250 mg/kg oral) | responding rats, % ([1]; dose 0.6250 mg/kg oral) | copulation mounting behaviour ([1]; male rats, oral) | number of erection episodes and penile erection indices (in words) ([1]; male rats, oral, 7a vs sildenafil, FIGS. 1 and 2) | ED50 of 7a compared with sildenafil (in words) ([1]; male rats, oral, 7a vs sildenafil, 95% confidence interval) | NOAEL [2] | toxicity and side-effects (in words) [3]
CCCc1nn(C)c2c(=O)[nH]c(-c3cc(S(=O)(=O)N4CCN(C)CC4)cc4c3OCC4)nc12 [Compound 7a, 5-[2,3-dihydro-5-(4-methylpiperazin-1-ylsulfonyl)-7-benzofuryl]-1-methyl-3-propyl-6,7-dihydro-1H-pyrazolo[4,3-d]pyrimidin-7-one] | 3 # | 30% | 4 # | 40% | 4 # | 40% | 8 # | 80% | no copulation mounting behaviour was observed | superior to sildenafil, especially at higher doses | lower than that of sildenafil | ~0.35 mg/kg | completely non-toxic and free from undesirable side-effects
CCCc1nn(C)c2c(=O)[nH]c(-c3cc(S(=O)(=O)N4CCN(C)CC4)ccc3OCC)nc12 [Sildenafil, reference compound] | 3 # | 30% | 3 # | 30% | 5 # | 50% | 7 # | 70% | no copulation mounting behaviour was observed | – | – | – | –

From patent publication US6242444A, “Compounds and pharmaceutical compositions containing the same” (The Jordanian Pharmaceutical Manufacturing and Medical …, priority 1999, dated 2001)
